Measured values: the supplement of paper PMC10307832

Legend:
Assay in all cases: relative viability (nuclei count vs DMSO), 5 days (fraction); higher = more cells survive
Carboplatin + Vorinostat = compound: C1CC(C1)(C(=O)O)C(=O)O.[NH2-].[NH2-].[Pt+2] [Carboplatin] + O=C(CCCCCCC(=O)Nc1ccccc1)NO [Vorinostat] (partner 1 µM)
Procedure, shortened: (§1)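 After 5 days of treatment, lung cancer cells in 1536-well plates were fixed and stained in a single step (final 0.05% Triton X-100, 1% formaldehyde, 1 ug/ml Hoechst) and their nuclei counted on 4× images. Treatment had been applied by pin tool the day after seeding as one drug alone or as a fixed anchor-drug dose with five library-drug doses (not always all listed) in √10 steps. Relative viability is the nuclei count of treated wells divided by that of vehicle wells, and values are medians of duplicate plates.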

Carboplatin + Crizotinib = compound: C1CC(C1)(C(=O)O)C(=O)O.[NH2-].[NH2-].[Pt+2] [Carboplatin] + C[C@@H](Oc1cc(-c2cnn(C3CCNCC3)c2)cnc1N)c1c(Cl)ccc(F)c1Cl [Crizotinib] (partner 1 µM)
Procedure, shortened: as §1

MLN4924 + Olaparib = compound: NS(=O)(=O)OC[C@@H]1C[C@@H](n2ccc3c(N[C@H]4CCc5ccccc54)ncnc32)C[C@@H]1O [MLN4924] + O=C(c1cc(Cc2n[nH]c(=O)c3ccccc23)ccc1F)N1CCN(C(=O)C2CC2)CC1 [Olaparib] (partner 8 µM)
Procedure, shortened: as §1

MLN4924 + Navitoclax = compound: NS(=O)(=O)OC[C@@H]1C[C@@H](n2ccc3c(N[C@H]4CCc5ccccc54)ncnc32)C[C@@H]1O [MLN4924] + CC1(C)CCC(c2ccc(Cl)cc2)=C(CN2CCN(c3ccc(C(=O)NS(=O)(=O)c4ccc(N[C@H](CCN5CCOCC5)CSc5ccccc5)c(S(=O)(=O)C(F)(F)F)c4)cc3)CC2)C1 [Navitoclax] (partner 0.5 µM)
Procedure, shortened: as §1

| Cell Line | relative viability (Carboplatin + Vorinostat; first compound 0.08 µM) | relative viability (Carboplatin + Vorinostat; first compound 0.253 µM) | relative viability (Carboplatin + Vorinostat; first compound 0.8 µM) | relative viability (Carboplatin + Vorinostat; first compound 2.53 µM) | relative viability (Carboplatin + Vorinostat; first compound 8 µM) | relative viability (Carboplatin + Crizotinib; first compound 0.08 µM) | relative viability (Carboplatin + Crizotinib; first compound 0.253 µM) | relative viability (Carboplatin + Crizotinib; first compound 0.8 µM) | relative viability (Carboplatin + Crizotinib; first compound 2.53 µM) | relative viability (Carboplatin + Crizotinib; first compound 8 µM) | relative viability (MLN4924 + Olaparib; first compound 0.04 µM) | relative viability (MLN4924 + Olaparib; first compound 0.1265 µM) | relative viability (MLN4924 + Olaparib; first compound 0.4 µM) | relative viability (MLN4924 + Olaparib; first compound 1.265 µM) | relative viability (MLN4924 + Olaparib; first compound 4 µM) | relative viability (MLN4924 + Navitoclax; first compound 0.04 µM) | relative viability (MLN4924 + Navitoclax; first compound 0.1265 µM) | relative viability (MLN4924 + Navitoclax; first compound 0.4 µM) | relative viability (MLN4924 + Navitoclax; first compound 1.265 µM) | relative viability (MLN4924 + Navitoclax; first compound 4 µM) |
| --- | --- | --- | --- | --- | --- | --- | --- | --- | --- | --- | --- | --- | --- | --- | --- | --- | --- | --- | --- | --- |
| NCI-H2023 | 0.628 | 0.733 | 0.434 | 0.299 | 0.11 | 0.633 | 0.604 | 0.566 | 0.419 | 0.144 | 0.397 | 0.221 | 0.12 | 0.0617 | 0.0657 | 1 | 0.758 | 0.362 | 0.109 | 0.0667 |
| NCI-H2347 | 0.555 | 0.586 | 0.646 | 0.595 | 0.526 | 0.903 | 0.697 | 0.635 | 0.571 | 0.632 | 0.666 | 0.605 | 0.512 | 0.4 | 0.376 | 0.676 | 0.677 | 0.44 | 0.305 | 0.369 |
| LXF-289 | 0.788 | 0.787 | 0.775 | 0.793 | 0.713 | 0.821 | 0.839 | 0.708 | 0.796 | 0.764 | 0.919 | 0.429 | 0.381 | 0.132 | 0.0927 | 0.848 | 0.664 | 0.524 | 0.174 | 0.113 |
| EMC-BAC-2 | 0.664 | 0.416 | 0.616 | 0.536 | 0.331 | 0.738 | 0.755 | 0.76 | 0.681 | 0.642 | 0.397 | 0.286 | 0.225 | 0.214 | 0.241 | 1.02 | 0.486 | 0.271 | 0.16 | 0.159 |
| LC-2-ad | 0.724 | 0.746 | 0.659 | 0.728 | 0.594 | 0.478 | 0.448 | 0.388 | 0.31 | 0.416 | 0.68 | 0.53 | 0.335 | 0.269 | 0.197 | 0.382 | 0.276 | 0.184 | 0.13 | 0.105 |
| NCI-H647 | 0.39 | 0.493 | 0.609 | 0.646 | 0.175 | 1.11 | 1.04 | 1.01 | 1.11 | 0.632 | 0.392 | 0.125 | 0.0492 | 0.0302 | 0.0464 | 0.976 | 0.424 | 0.159 | 0.0575 | 0.0744 |
| NCI-H1734 | 0.823 | 0.83 | 0.78 | 0.779 | 0.545 | 0.682 | 0.673 | 0.637 | 0.716 | 0.614 | 0.652 | 0.547 | 0.128 | 0.108 | 0.107 | 0.943 | 0.814 | 0.331 | 0.103 | 0.0958 |
| LOU-NH91 | 1.03 | 0.937 | 0.949 | 0.894 | 0.734 | 0.74 | 0.731 | 0.714 | 0.735 | 0.725 | 0.887 | 0.844 | 0.724 | 0.47 | 0.48 | 0.649 | 0.761 | 0.556 | 0.41 | 0.314 |
| NCI-H441 | 0.865 | 0.835 | 0.588 | 0.785 | 0.369 | 0.72 | 0.925 | 0.618 | 0.791 | 0.655 | 0.567 | 0.426 | 0.296 | 0.143 | 0.169 | 0.708 | 0.489 | 0.357 | 0.138 | 0.173 |
| RERF-LC-KJ | 0.797 | 0.642 | 0.735 | 0.676 | 0.505 | 0.824 | 0.861 | 0.84 | 0.72 | 0.631 | 0.624 | 0.344 | 0.221 | 0.206 | 0.218 | 0.855 | 0.569 | 0.229 | 0.177 | 0.209 |
| H3255 | 0.777 | 0.815 | 0.776 | 0.72 | 0.572 | 0.874 | 0.884 | 0.825 | 0.79 | 0.726 | 0.481 | 0.372 | 0.297 | 0.253 | 0.268 | 0.592 | 0.434 | 0.226 | 0.131 | 0.175 |
| A-427 | 0.865 | 0.854 | 0.864 | 0.864 | 0.829 | 0.91 | 1.13 | 0.894 | 0.976 | 0.799 | 0.467 | 0.335 | 0.296 | 0.24 | 0.241 | 0.468 | 0.321 | 0.273 | 0.221 | 0.227 |
